Here are results for 14 molecules from paper PMC9104508, “Antioxidant, Hypoglycemic and Molecular Docking Studies of Methanolic Extract, Fractions and Isolated Compounds from Aerial Parts of Cymbopogon citratus (DC.) Stapf” (Molecules, 2022).

Like-named read-outs stand apart in the source and are kept apart here. Marks after values point to notes of the source that are not given here.

The target of one assay is α-glucosidase (Saccharomyces cerevisiae, UniProt P53341). The assay is described as follows: α-Glucosidase inhibition assay (pNPG substrate). Format: biochemical. The settings on record: for inhibition at 20 µM: read-out: α-Glucosidase Inhibitory Rate. On the procedure: The α-glucosidase inhibitory activity was measured according to the procedure described in the paper, with slight modifications. […] Immediately, 40 μL PNPG (2.5 mM) was added to each well and reacted at 37 °C for 30 min. […] The total volume of the reaction system was 200 μL. The α-glucosidase inhibition activity was calculated according to the following formula:Inhibition (%) = [1 − (A1 − A2)/(A3 − A4)] × 100(2) A1 = the absorbance of the sample group with α-glucosidase, A2 = the absorbance of the sample control group without α-glucosidase, A3 = the absorbance of the control group without samples, and A4 = the absorbance of the blank control without samples and α-glucosidase.
α-glucosidase, sequence (P53341 whole entry): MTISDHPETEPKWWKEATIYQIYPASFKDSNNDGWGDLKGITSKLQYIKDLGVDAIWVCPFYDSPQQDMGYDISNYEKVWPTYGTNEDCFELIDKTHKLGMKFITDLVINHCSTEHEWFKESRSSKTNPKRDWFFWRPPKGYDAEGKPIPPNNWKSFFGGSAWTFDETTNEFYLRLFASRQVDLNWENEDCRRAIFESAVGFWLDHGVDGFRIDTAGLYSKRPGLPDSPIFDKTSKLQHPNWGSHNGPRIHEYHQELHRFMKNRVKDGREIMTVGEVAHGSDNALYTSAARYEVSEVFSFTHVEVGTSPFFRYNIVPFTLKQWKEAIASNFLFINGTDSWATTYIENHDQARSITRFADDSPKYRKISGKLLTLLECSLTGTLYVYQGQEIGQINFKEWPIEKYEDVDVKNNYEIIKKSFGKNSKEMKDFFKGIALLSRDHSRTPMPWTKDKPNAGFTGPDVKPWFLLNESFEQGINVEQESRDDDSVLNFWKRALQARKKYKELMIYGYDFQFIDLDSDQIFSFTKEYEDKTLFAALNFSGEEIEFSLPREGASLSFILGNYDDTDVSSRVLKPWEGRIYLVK
Results were expressed as IC50 values calculated according to Prism7.0 software.

Assay [1] is described as follows: DPPH free radical scavenging assay. As to conditions: compounds; 30 min, room temperature. On the procedure:
(§1) The antioxidant activities of the crude extracts and isolated compounds were evaluated by implementing 2,2-diphenyl-1-picrylhydrazyl free radical scavenging (DPPH^+), 2,2’-azino-bis (3-ethylbenzothiazoline-6-sulphonic free radical scavenging (ABTS^+), and the ferric reducing antioxidant power (FRAP) assay.
The DPPH^+ assay was measured according to the previous report with slight modifications. […] The DPPH^+ was dissolved with anhydrous methanol to 0.1 mM.
Then 180 μL DPPH solution and 20 μL sample were mixed in each well of a 96-well plate and incubated for 30 min at room temperature in the dark. […] Ascorbic acid was used as a positive control. The DPPH^+ scavenging activity was calculated according to the following formula:Inhibition (%) = [1 − (A1 − A2)/(A3 − A4)] × 100(1) A1 = absorbance of the sample group with DPPH, A2 = absorbance of the sample control group without DPPH, A3 = absorbance of the control group with DPPH, and A4 = the absorbance of the blank control.

Assay [2] can be described thus: ABTS free radical scavenging assay (commercial kit, Trolox standard). The settings on record: compounds. On the procedure: as §1
(§2) ABTS^+ and FRAP assays were measured by commercial assay kits (Suzhou Comin Biotechnology Co., Ltd., Suzhou, China). The experimental method was determined according to the method used in the literature. The crude extracts and chemical compounds were dissolved in anhydrous ethanol at concentrations of 800 μg/mL and 40 μM. […] Trolox was used as a standard reference compound to quantitate ABTS^+ and FRAP capacity. The results were expressed in µmol Trolox/g or mol Trolox/mol. The standard curve was drawn using Trolox solutions at a range of concentrations.

The nature of assay [3]: Ferric reducing antioxidant power (FRAP) assay (commercial kit, Trolox standard). The settings on record: compounds. On the procedure: as §1, §2
A further assay relates to 3T3-L1 adipocytes. Kind of assay: Glucose uptake in 3T3-L1 adipocytes. Type of assay: cell-based, mouse. As for the experimental part:
The 3T3-L1 preadipocytes were cultured and differentiated using the method described earlier with slight modifications. The 3T3-L1 preadipocytes were cultured in high glucose DMEM supplemented with 10% NBCS, 1% P/S, and then starved until the cells reached confluence (day 0). Two days later (day 2), the cells were induced for differentiation with high glucose DMEM supplemented with 10% FBS, 1% P/S, IBMX, DEX, Rosi, and insulin. On day 5, the medium was changed to high glucose DMEM containing 10% FBS, 1% P/S, and 100 nM insulin for one day (day 6). Then the cells were completely differentiated into mature adipocytes.
The glucose uptake test was carried out according to the procedure described in the paper. […] After 48 h of culture, the glucose uptake was measured according to the operating instructions of the glucose content determination kit. Following the glucose uptake test, the cell viability was determined using the CellTiter 96® aqueous cell proliferation test. […] Then the absorbance was measured using microplate reader at 490 nm after incubation at 37 °C for 4 h. The cell viability was calculated according to the following formula:Cell viability rate (%) = […] × 100 (3) A1 = the absorbance of the blank control, A2 = the absorbance of each fraction group, each compound group, or positive control group.

As to `C[C@H]1O[C@H](O[C@H]2[C@H](O)[C@@H](O)[C@@H](O[C@H]3[C@H](O)[C@@H](O)C(O)O[C@@H]3CO)O[C@@H]2CO)[C@H](O)[C@@H](O)[C@@H]1N[C@H]1C=C(CO)[C@@H](O)[C@H](O)[C@H]1O` (some centres unmarked) [Acarbose, reference compound], the “α-Glucosidase Inhibitory Rate” value on α-glucosidase (at a concentration of 20 μM) turned out to be 99.4 ± 0.0%.
In the case of `O=C1O[C@H]([C@@H](O)CO)C(O)=C1O` [Ascorbic acid, reference compound], the IC50 (commonly the concentration that inhibits the measured activity by half) in assay [1] stood at 19.8 ± 1.27 µM. Moreover, in assay [2], the “ABTS Assay, Trolox equivalents” value is on record as 1.66 ± 0.050 ^e mol Trolox/mol. In assay [3], the “FRAP Assay, Trolox equivalents” value was 1.68 ± 0.063 ^b mol Trolox/mol.
As to `COc1cc(O)cc(O)c1C(C)=O` [Compound 1, 4,6-dihydroxy-2-methoxyacetophenone], the 50% inhibitory concentration (IC50) in assay [1] was over 80 µM. In assay [2], the “ABTS Assay, Trolox equivalents” value was 2.40 ± 0.16 ^a mol Trolox/mol. Moreover, the inhibition at 20 µM at α-glucosidase (at a concentration of 20 μM) was under 50%.
The matching figures for `COc1cc(OC2OC(CO)C(O)C(O)C2O)cc(O)c1C(C)=O` [Compound 2, 4-O-β-D-glucopyranosyl-2-hydroxy-6-methoxyacetophenone]: over 80 µM, 0.87 ± 0.11 ^f mol Trolox/mol and 22.6 ± 3.4%.
For the molecule `CC(=O)c1c(O)cc(O)cc1OC1OC(CO)C(O)C(O)C1O` [Compound 3, 2,4,6-trihydroxy-acetophenone 2-O-β-D-glucoside], the IC50 in assay [1] was over 80 µM. For the same molecule, the “ABTS Assay, Trolox equivalents” value in assay [2] is listed as 1.97 ± 0.079 ^cd mol Trolox/mol. Moreover, at α-glucosidase (at a concentration of 20 μM), the inhibition at 20 µM is under 50%.
In the case of `O=C(O)/C=C/c1ccc(O)cc1` [Compound 4, p-coumaric acid], the IC50 in assay [1] was over 80 µM. For the same molecule, the “ABTS Assay, Trolox equivalents” value in assay [2] is given as 2.28± 0.10 ^ab mol Trolox/mol. The inhibition at 20 µM on α-glucosidase is under 50%.
In the case of `O=C(O)/C=C/c1ccc(O)c(O)c1` [Compound 5, caffeic acid], in assay [1], the IC50 came out at 7.41 ± 0.74 µM. In addition, the “ABTS Assay, Trolox equivalents” value in assay [2] was 2.15 ± 0.0619 ^abc mol Trolox/mol. For the same molecule, the “FRAP Assay, Trolox equivalents” value in assay [3] is 1.73 ± 0.080 ^b mol Trolox/mol. The inhibition at 20 µM on α-glucosidase (at a concentration of 20 μM) is under 50%. Besides, the “glucose uptake in 3T3-L1 adipocytes” value with 3T3-L1 adipocytes (compounds at 20 μM, 48 h, versus control) is on record as “weak effect”.
`COc1cc(/C=C/C(=O)OCC(O)CO)ccc1O` (centres unmarked) [Compound 6, 1-O-feruloylglycerol]: the IC50 in assay [1] is over 80 µM. The “ABTS Assay, Trolox equivalents” value in assay [2] is listed as 1.80 ± 0.0462 ^de mol Trolox/mol. For the same molecule, the “FRAP Assay, Trolox equivalents” value in assay [3] is reported as 0.012 ± 0.014 ^d mol Trolox/mol. Besides, the inhibition at 20 µM at α-glucosidase (at a concentration of 20 μM) was found to be 5.3 ± 1.8%.
For `O=C(/C=C/c1ccc(O)cc1)OCC(O)COC(=O)/C=C/c1ccc(O)cc1` [Compound 7, 1,3-O-di-p-coumaroylglycerol], in assay [1], the IC50 is over 80 µM. Further, in assay [2], the “ABTS Assay, Trolox equivalents” value is reported as 1.99 ± 0.11 ^cd mol Trolox/mol. For the same molecule, at α-glucosidase (at a concentration of 20 μM), the inhibition at 20 µM was 46.1 ± 2.4%.
With `O=C(/C=C/c1ccc(O)cc1)OCC(O)COC(=O)/C=C/c1ccc(O)c(O)c1` (centres unmarked) [Compound 8, 1-O-p-coumaroyl-3-O-caffeoylglycerol], 14.8 ± 1.83 µM corresponded to half-maximal inhibition in assay [1] (IC50). Also, the “ABTS Assay, Trolox equivalents” value in assay [2] is on record as 1.70 ± 0.066 ^e mol Trolox/mol. Also, the “FRAP Assay, Trolox equivalents” value in assay [3] is given as 1.42 ± 0.073 ^c mol Trolox/mol. Also, the inhibition at 20 µM at α-glucosidase (at a concentration of 20 μM) was found to be 67%.
For `O=C(/C=C/c1ccc(O)c(O)c1)OCC(O)COC(=O)/C=C/c1ccc(O)c(O)c1` [Compound 9, 1,3-O-dicaffeoylglycerol], the IC50 in assay [1] came to 8.82 ± 1.12 µM. Further, in assay [2], the “ABTS Assay, Trolox equivalents” value is reported as 2.065 ± 0.050 ^bcd mol Trolox/mol. Moreover, in assay [3], the “FRAP Assay, Trolox equivalents” value is on record as 2.42 ± 0.10 ^a mol Trolox/mol. The inhibition at 20 µM at α-glucosidase (at a concentration of 20 μM) amounted to 88.8%.
`COc1cc(-c2cc(=O)c3c(O)cc(O)cc3o2)cc(OC)c1O` [Compound 10, tricin] registered an IC50 in assay [1] of over 80 µM. Further, in assay [2], the “ABTS Assay, Trolox equivalents” value is 1.64 ± 0.14 ^e mol Trolox/mol. Also, the inhibition at 20 µM at α-glucosidase worked out at 20.8 ± 7.3%.
As for `O=c1cc(-c2ccc(O)c(O)c2)oc2cc(O[C@@H]3O[C@H](CO)[C@@H](O)[C@H](O)[C@H]3O)cc(O)c12` [Compound 12, luteolin-7-O-β-D-glucopyranoside], in assay [1], the IC50 is 7.28 ± 1.48 µM. Moreover, in assay [2], the “ABTS Assay, Trolox equivalents” value was 1.86 ± 0.075 ^de mol Trolox/mol. Also, the “FRAP Assay, Trolox equivalents” value in assay [3] is 1.31 ± 0.057 ^c mol Trolox/mol. For the same molecule, the inhibition at 20 µM at α-glucosidase was 21.9 ± 6%.
Regarding insulin, the “glucose uptake rates of 3T3-L1 adipocytes” value in the assay on 3T3-L1 adipocytes (positive control group versus control group, p < 0.001) is “noticeably promoted”.
